# Results published in patent US20180105548A1, “A novel compound (KS-513) isolated from Pseudolysimachion rotundum var. subintegrum, the composition comprising the same preventing or treating allergic disease, inflammatory disease, asthma or chronic obstructive pulmonary disease and the use thereof” (priority 2015, published 2018).
# Key:
# COX-2 [1] = assay: COX-2 protein expression in RAW264.7 cell induced by LPS (Western blot); format: cell-based, mouse; conditions: LPS 1 μg/ml, FIG. 4A
# Method: In order to determine the inhibitory effect on the COX-2 protein expression and the reproduced level of PGE2, following test was performed by the method disclosed in the literature (Chen, C, et al., 1999, Involvement of p 38 mitogen-activated protein kinase in lipopolysaccharide-induced iNOS and COX-2 expression in J774 macrophage, Immunology, 97, pp 124-129)
# The expressed level of COX-2 in RAW264.7 cell induced by LPS (1 μg/ml) was determined by using Western blot analysis according to the method disclosed in Experimental Example 3.
# COX-2 [2] = assay: mRNA expression of COX-2 in RAW264.7 cell line induced by LPS (real-time PCR); format: cell-based, mouse; conditions: for COX-2 mRNA expression, Fold (value compared with a negative group) / COX-2 mRNA expression, Inhibition ratio (IR) compared with LPS treatment group: LPS 1 μg/ml, 12 hours
# Method: In order to determine the inhibitory effect on the mRNA expression of pro-inflammatory medicated enzyme such as iNOS or COX-2, and pro-inflammatory medicated cytokines such as IL-1beta, IL-6, TNF-alpha in RAW264.7 cell line induced by LPS, following test using by real-time PCR (real-time polymerase chain reaction, quantitative real time polymerase chain reaction, qPCR) was performed according to the method disclosed in the literature (Livak, K. J., Schimittgen T. D., 2001, Analysis of relative gene expression data using real-time quantitiative PCR and the 2 (-Delta Delta C(T) method, Methods 25, p 402-408):
# RAW264.7 cell was inoculated into 6-well-plates in the concentration of 1×10^6 cell/well to incubate for 12 hours. Various concentration of KS-513 compound (2.5, 5, 10 and 20 μM) was pre-treated therewith and 1 μg/mL of LPS (L6529, Sigma) was added thereto to incubate for 12 hours.
# To extract total RNA, RNA was extracted using by Triazol B (invitrogen) and cDNA was synthesized using by Omniscript RT kit (205113, Qiagen, Gmbh, Hilden, Germany) after the quantification. The synthesized cDNA was mixed with its template and the primers shown in Table 3 (SEQ.I.D. 1-14), performed to denaturation at 94° C. for 5 mins using by PCR mix (PCR master Mix, Bioneer, Korea), and reacted as follows: 1 cycle for pre-denaturation; at 95° C. for 30 sec, 60° C. for 45 sec, 72° C. for 45 sec, 30 cycles for denaturation; 10 mins at 72° C., 1cycle for final extension. (FIG. 2)
smiles,measurement,setting,value
"CO[C@@H]1C[C@H]2[C@H](OC(=O)c3ccc(O)cc3)[C@@H]3O[C@]3(CO)[C@H]2[C@H](O[C@@H]2O[C@H](CO)[C@@H](O)C(O)[C@H]2O)O1 (stereo partly drawn) [KS-513, (1aS, 1bS,2S,4S,5aR,6S,6aS)-1a-(hydroxymethyl)-4-methoxy-2-(((2S,3R,5S,6R)-3,4,5-trihydroxy-6-(hydroxymethyl)tetrahydro-2H-pyran-2-yl)oxy)octahydrooxireno[2′,3′:4,5]cyclopenta[1,2-c]pyran-6-yl 4-hydroxybenzoate]",expressed level of COX-2 protein,COX-2 [1],reduced in a dose dependent manner
same,"COX-2 mRNA expression, Fold (value compared with a negative group)",COX-2 [2]; 2.5 μM,4.72 ± 0.21 Fold
same,"COX-2 mRNA expression, Inhibition ratio (IR) compared with LPS treatment group",COX-2 [2]; 2.5 μM,39.91%
same,"COX-2 mRNA expression, Fold (value compared with a negative group)",COX-2 [2]; 5 μM,2.64 ± 0.15 Fold
same,"COX-2 mRNA expression, Inhibition ratio (IR) compared with LPS treatment group",COX-2 [2]; 5 μM,66.40%
same,"COX-2 mRNA expression, Fold (value compared with a negative group)",COX-2 [2]; 10 μM,1.43 ± 0.50 Fold
same,"COX-2 mRNA expression, Inhibition ratio (IR) compared with LPS treatment group",COX-2 [2]; 10 μM,81.81%
same,"COX-2 mRNA expression, Fold (value compared with a negative group)",COX-2 [2]; 20 μM,0.97 ± 0.38 Fold
same,"COX-2 mRNA expression, Inhibition ratio (IR) compared with LPS treatment group",COX-2 [2]; 20 μM,87.66%
same,expressed level of mRNA of COX-2,"COX-2 [2]; various concentration, compared with control group treated with LPS (100%)",significantly decreased in a dose dependent manner
